In US12275720B2, “Small molecule inhibitors of galectin-3” (BRISTOL MYERS SQUIBB, priority 2020, dated 2025):
pIC50: −log10 of the molar value.

What was measured:
[1] = target: His-tagged recombinant human Gal-3 (hGal-3) (Homo sapiens, UniProt P17931); assay: Gal 3 HTRF Assay; format: binding; conditions: HTRF assay (default), 15 nM hGal-3, 15 nM B-ASF; read-out: hGal3 IC50 (HTRF)
Description: • ASSAY BUFFER Composition: 25 mM HEPES, 100 mM NaCl, 0.005% Tween 20, 0.05% BSA prepared in sterile water (all reagents from Sigma). Controls: • Positive Control: 100% DMSO (1 μL)+His-tagged hGal-3 (20 μL)+B-ASF (20 μL)+Anti-His Terbium Antibody (5 μL)+Strep d2 Antibody (5 μL). • Negative Control: 100% DMSO (1 μL)+His-tagged hGal-3(20 μL)+Anti His Terbium Antibody (5 μL)+Strep d2 Antibody (5 μL). Stocks Preparation:
PROTOCOL: The Gal-3 assays were performed in 384 white Opti plates in three replicates at room temperature with gentle shaking at 250-300 rpm From the original stocks, […] working stock concentrations of His-tagged recombinant human Gal-3 (hGal-3) and that of B-ASF were prepared. From the working stock, 20 μL of hGal-3 (15 nM) and 20 μL B-ASF (15 nM) were added to the plates. In Negative Control, only hGal-3 was added. A concentration range of 50× working stocks were prepared for the compounds in 100% DMSO. Aliquots of 1 μL of the compounds were added to the wells and pre-incubated with 20 μL hGal-3 per well for 30 minutes Then 20 μL B-ASF were added and incubated for another 1 hour. To detect the signal, 5 μL (final conc. of 1.0 nM) terbium labelled Anti-His antibody was added and incubated for 30 min followed by adding 5 μL (final conc. of 20 nM) Streptavidin d2 and incubation for another 1 hour. The assay signal was detected using HTRF screen protocol (Excitation wavelength=340 nm, emission wavelength=615 nm/665 nm) on Envision 2104 Multilabel Reader. Data analysed using Toolset and Curve Master. Results are reported in the experimental section (IC50 in μM). All IC50 reported were generated using the HTRF assay except when specifically indicated.

hGalectin-3 = target: T1, hGalectin-3 (Homo sapiens, UniProt P17931); assay: Gal-3 ELISA Assay (hGalectin-3 neutralization binding assay); conditions: ASF-coated plate, 15 nM hGalectin-3, read-out: hGal3 IC50 (ELISA)
T1 construct: made in house
T1 sequence (P17931 whole entry): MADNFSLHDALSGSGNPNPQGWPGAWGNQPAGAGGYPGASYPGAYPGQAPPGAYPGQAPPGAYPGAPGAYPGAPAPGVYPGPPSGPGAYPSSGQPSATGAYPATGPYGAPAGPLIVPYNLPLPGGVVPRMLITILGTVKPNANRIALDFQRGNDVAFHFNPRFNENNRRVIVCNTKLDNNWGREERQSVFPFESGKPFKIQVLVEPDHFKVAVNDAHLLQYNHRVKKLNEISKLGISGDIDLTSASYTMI

Sequence of His-tagged recombinant human Gal-3 (hGal-3) (P17931 whole entry): as above

Row | Molecule | pIC50 [1] | pIC50 (hGalectin-3)
1 | (2R, 3R, 4S, 5R, 6R)-4-(4-(3-fluorophenyl)-1H-1,2,3-triazol-1-yl)-N-((1S,2R,3R)-3-(4-(3-fluorophenyl)-1H-1,2,3-triazol-1-yl)-2-hydroxycyclohexyl)-5-hydroxy-6-(hydroxymethyl)-3-methoxytetrahydro-2H-pyran-2-carboxamide [Example 1a] | 6.54 | 6.15
2 | (2R,3R,4S,5R,6R)-4-(4-(3-fluorophenyl)-1H-1,2,3-triazol-1-yl)-N-((3R,4S,5S)-5-(4-(3-fluorophenyl)-1H-1,2,3-triazol-1-yl)-4-hydroxytetrahydro-2H-pyran-3-yl)-5-hydroxy-6-(hydroxymethyl)-3-methoxytetrahydro-2H-pyran-2-carboxamide [Example 20a] | 4.44 | –
3 | (2R,3R,4S,5R,6R)-4-(4-(3-fluorophenyl)-1H-1,2,3-triazol-1-yl)-N-((3R,4S,5S)-5-(4-(3-fluorophenyl)-1H-1,2,3-triazol-1-yl)-4-hydroxytetrahydro-2H-pyran-3-yl)-5-hydroxy-6-(hydroxymethyl)-3-methoxytetrahydro-2H-pyran-2-carboxamide [Example 20b] | 7.05 | –
4 | (2R,3R,4S,5R,6R)-4-(4-(3-fluorophenyl)-1H-1,2,3-triazol-1-yl)-N-((3R,4S,5S)-5-(4-(3-fluorophenyl)-1H-1,2,3-triazol-1-yl)-4-hydroxypiperidin-3-yl)-5-hydroxy-6-(hydroxymethyl)-3-methoxy-N-methyltetrahydro-2H-pyran-2-carboxamide [Example 16b] | 7.36 | –
5 | CO[C@@H]1[C@@H](n2cc(-c3cccc(F)c3)nn2)[C@@H](O)[C@@H](CO)O[C@H]1C(=O)N(C)[C@H]1COC[C@@H](n2ncc3cc(F)cnc32)[C@@H]1O [Example 22a, (2R,3R,4S,5R,6R)-N-((3S,4R,5R)-5-(5-fluoro-1H-pyrazolo[3,4-b]pyridin-1-yl)-4-hydroxytetrahydro-2H-pyran-3-yl)-4-(4-(3-fluorophenyl)-1H-1,2,3-triazol-1-yl)-5-hydroxy-6-(hydroxymethyl)-3-methoxy-N-methyltetrahydro-2H-pyran-2-carboxamide] | < 5.00 | –
6 | (2R,3R,4S,5R,6R)-4-(4-(3-fluorophenyl)-1H-1,2,3-triazol-1-yl)-N-((1S,2R,3R)-3-(3-(3-fluorophenyl)-1H-1,2,4-triazol-1-yl)-2-hydroxycyclohexyl)-5-hydroxy-6-(hydroxymethyl)-3-methoxytetrahydro-2H-pyran-2-carboxamide [Example 9b] | < 4.00 | –
7 | (2R,3R,4S,5R,6R)-4-(4-(3-fluorophenyl)-1H-1,2,3-triazol-1-yl)-N-((1R,2S,3S)-3-(5-(3-fluorophenyl)-1H-1,2,3-triazol-1-yl)-2-hydroxycyclohexyl)-5-hydroxy-6-(hydroxymethyl)-3-methoxytetrahydro-2H-pyran-2-carboxamide [Example 6b] | 6.05 | –
8 | (2R,3R,4S,5R,6R)-4-(4-(3-fluorophenyl)-1H-1,2,3-triazol-1-yl)-N-((3R,4S,5S)-5-(4-(3-fluorophenyl)-1H-1,2,3-triazol-1-yl)-4-hydroxypiperidin-3-yl)-5-hydroxy-6-(hydroxymethyl)-3-methoxy-N-methyltetrahydro-2H-pyran-2-carboxamide [Example 16a] | 5.46 | –
9 | CO[C@@H]1[C@@H](n2cc(-c3cccc(F)c3)nn2)[C@@H](O)[C@@H](CO)O[C@H]1C(=O)N(C)[C@H]1COC[C@@H](n2cc(-c3cccc(F)c3)nn2)[C@@H]1O (single isomer, unassigned) [Example 21] | 7.52 | –
10 | (2R,4R,5R,6R)-4-(4-(3-fluorophenyl)-1H-1,2,3-triazol-1-yl)-N-((3R,4S,5S)-5-(4-(3-fluorophenyl)-1H-1,2,3-triazol-1-yl)-4-hydroxypiperidin-3-yl)-5-hydroxy-6-(hydroxymethyl)-N-methyltetrahydro-2H-pyran-2-carboxamide [Example 17a] | 5.28 | –
11 | (2R,3R,4S,5R,6R)-N-((1R,2S,3S)-3-(4-fluoro-1H-indazol-1-yl)-2-hydroxycyclohexyl)-4-(4-(3-fluorophenyl)-1H-1,2,3-triazol-1-yl)-5-hydroxy-6-(hydroxymethyl)-3-methoxytetrahydro-2H-pyran-2-carboxamide [Example 7b] | 4.64 | –
12 | (2R, 3R, 4S, 5R, 6R)-4-(4-(3-fluorophenyl)-1H-1,2,3-triazol-1-yl)-N-((1S,2R,3R)-3-(4-(3-fluorophenyl)-1H-1,2,3-triazol-1-yl)-2-hydroxycyclohexyl)-5-hydroxy-6-(hydroxymethyl)-3-methoxytetrahydro-2H-pyran-2-carboxamide [Example 1b] | – | 4.80
13 | CO[C@@H]1[C@@H](n2cc(-c3cccc(F)c3)nn2)[C@@H](O)[C@@H](CO)O[C@H]1C(=O)N(C)[C@H]1CN(C)C[C@@H](n2cc(-c3cccc(F)c3)nn2)[C@@H]1O [Example 19, (2R,3R,4S,5R,6R)-4-(4-(3-fluorophenyl)-1H-1,2,3-triazol-1-yl)-N-((3S,4R,5R)-5-(4-(3-fluorophenyl)-1H-1,2,3-triazol-1-yl)-4-hydroxy-1-methylpiperidin-3-yl)-5-hydroxy-6-(hydroxymethyl)-3-methoxy-N-methyltetrahydro-2H-pyran-2-carboxamide] | 7.70 | –
14 | (2R,3R,4S,5R,6R)-4-(4-(3-fluorophenyl)-1H-1,2,3-triazol-1-yl)-N-((3R,4S,5S)-5-(4-(3-fluorophenyl)-1H-1,2,3-triazol-1-yl)-4-hydroxypiperidin-3-yl)-3,5-dihydroxy-6-(hydroxymethyl)-N-methyltetrahydro-2H-pyran-2-carboxamide [Example 18a] | 5.74 | –
15 | (2R,3R,4S,5R,6R)-4-(4-(3-fluorophenyl)-1H-1,2,3-triazol-1-yl)-N-((1S,2R,3R)-3-(4-(3-fluorophenyl)-1H-1,2,3-triazol-1-yl)-2-hydroxycyclohexyl)-5-hydroxy-6-(hydroxymethyl)-3-methoxy-N-methyltetrahydro-2H-pyran-2-carboxamide [Example 10b] | 7.04 | –
16 | (2R,3R,4S,5R,6R)-N-((1R,2S,3S)-3-(4-fluoro-1H-indazol-1-yl)-2-hydroxycyclohexyl)-4-(4-(3-fluorophenyl)-1H-1,2,3-triazol-1-yl)-5-hydroxy-6-(hydroxymethyl)-3-methoxytetrahydro-2H-pyran-2-carboxamide [Example 7a] | 6.19 | –
17 | (2R,3R,4S,5R,6R)-4-(4-(3-fluorophenyl)-1H-1,2,3-triazol-1-yl)-N-((3R,4S,5S)-5-(4-(3-fluorophenyl)-1H-1,2,3-triazol-1-yl)-4-hydroxypiperidin-3-yl)-3,5-dihydroxy-6-(hydroxymethyl)-N-methyltetrahydro-2H-pyran-2-carboxamide [Example 18b] | 7.30 | –
18 | (2R,4R,5R,6R)-4-(4-(3-fluorophenyl)-1H-1,2,3-triazol-1-yl)-N-((3R,4S,5S)-5-(4-(3-fluorophenyl)-1H-1,2,3-triazol-1-yl)-4-hydroxypiperidin-3-yl)-5-hydroxy-6-(hydroxymethyl)-N-methyltetrahydro-2H-pyran-2-carboxamide [Example 17b] | 6.89 | –
19 | (2R,3R,4S,5R,6R)-4-(4-(3-fluorophenyl)-1H-1,2,3-triazol-1-yl)-N-((1R,2S,3S)-3-(5-(3-fluorophenyl)-1H-1,2,3-triazol-1-yl)-2-hydroxycyclohexyl)-5-hydroxy-6-(hydroxymethyl)-3-methoxytetrahydro-2H-pyran-2-carboxamide [Example 6a] | 4.57 | –
20 | (2R,3R,4S,5R,6R)-4-(4-(3-fluorophenyl)-1H-1,2,3-triazol-1-yl)-N-((1S,2R,3R)-3-(3-(3-fluorophenyl)-1H-1,2,4-triazol-1-yl)-2-hydroxycyclohexyl)-5-hydroxy-6-(hydroxymethyl)-3-methoxytetrahydro-2H-pyran-2-carboxamide [Example 9a] | 6.30 | –
21 | (2R,3R,4S,5R,6R)-4-(4-(3-fluorophenyl)-1H-1,2,3-triazol-1-yl)-N-((1S,2R,3R)-3-(4-(3-fluorophenyl)-1H-1,2,3-triazol-1-yl)-2-hydroxycyclohexyl)-5-hydroxy-6-(hydroxymethyl)-3-methoxy-N-methyltetrahydro-2H-pyran-2-carboxamide [Example 10a] | 5.26 | –
22 | CO[C@@H]1[C@@H](n2cc(-c3cccc(F)c3)nn2)[C@@H](O)[C@@H](CO)O[C@H]1C(=O)N[C@@H]1CCC[C@H](n2cc3c(F)cccc3n2)[C@H]1O (single isomer, unassigned) [Example 8] | 6.24 | –
